Source: patent US6929685B2, “Alkylamine derivatives as antifouling agents” (Bayer Atiengesellschaft, priority 2001, dated 2005)

What was measured:
[1] = test system: slime; assay: Raft panel static immersion test of antifouling paints: slime; set-up: key: G: Not present; Some light slime; F: Overall covered; conditions: Dutch harbor, sea water
Description: (§1) The prepared paints have been evaluated on can stability, adhesion and film defects. The antifouling performance has been tested by application of the paints on raft panels. At first the steel panels had been protected with a standard anticorrosive system for marine environments (300 μm in dft). The to be tested antifouling paint had been applied in 2 layers with a total dry film thickness between 200 and 300 μm. Finally the panels were subjected to a static immersion test on rafts at sea harbors in Holland. The paints were inspected for the presence of fouling (% of area covered with fouling organisms) and of film defects every two months. The tested paint formulations are represented in Table 1.
(§2) Further explanations to Table 1: • 1. Model coatings of type 1 (MC-1A/B/C) are for the evaluation of the algicidal properties of the claimed structures at three different representative weight-% next to 35% cuprous oxide. Good performing references are model coating MC-2 and MC-3 [35% cuprous oxide+3% Seanine (MC-2) or 35% cuprous oxide+3% Irgarol (MC-3)]. Base level references are “cuprous oxide only” formulations [cuprous oxide only (35% (MC4) and 50% level (MC-5)]. • 2. Model coatings of type 6 and 7 are for the evaluation of the activity of the claimed structures against “hard fouling” in combination with two different types of algicides: claimed structure (1/2/4%; MC-6-A/B/C)+3% Seanine or claimed structure (1/2/4%; MC-7-A/B/C)+3% Irgarol). Base level references are “algicide only” formulations with 3% Seanine (MC-8) or 3% Irgarol (MC-9).
(§3) 3. Model coatings of type 10 (MC-10A/B) evaluate the total spectrum of biocidal activity by using the claimed structure as only biocide at 2 levels (4 and 8 w %). Good performing references are “cuprous oxide only” formulations [cuprous oxide 35% (MC-4) and 50% (MC-5)]. As blank serves model coating 11 (MC-1 1) containing no biocide at all.
(§4) The claimed structures were tested at several levels of dosage with and without an algicide as co-biocide. The following formulations were used for comparison: formulations with cuprous oxide, formulations with cuprous oxide and commercial co-biocides, a blank and two formulations that only contained the co-biocide and finally a commercial tributyltin-releasing self polishing system.
(§5) An even better protection can be obtained by combining claimed structures with co-biocides like the algicides that are commonly used for antifoulings.

[2] = test system: cyprid larvae of the barnacle Balanus amphitrite; assay: Settlement assay, cyprid larvae of the barnacle; assay type: in vivo; conditions: Balanus amphitrite cyprids, seawater, 27° C., Spearman-Karber
Method: The rate of settlement of laboratory reared cyprid larvae of the barnacle Balanus amphitrite was determined for testing the activity of candidate antifouling compounds. Settlement Assay Tests are carried out in four replicates in sterile polystyrene multi well plates. Between 25 and 40 cyprid larvae are injected in the dishes containing either 2 ml of test solution (see below), solvent control or a positive control (dichloro-n-octyl-isothiazolinone). Dishes are incubated for 24 h at a temperature of 27° C. ±2. After incubation the cyprids are screened for signs of toxicity. The test is terminated by addition of a drop of 20% formaldehyde and the numbers of settled and non-settled larvae are counted. Settlement is evaluated as follows: 1) non settled: not attached free-swimming cyprids, 2) settled cyprids: attached, but not metamorphosed cyprids, 3) barnacles: attached juvenile barnacles. Categories 2 and 3 are considered to be settled. Percentage settlement in test solution is compared with controls. Estimates of the median effect concentration (EC50) after […] are calculated using the Spearman-Karber method. All seawater used is of natural origin and filtered unto 0.2 μm. Stock solutions of test compounds are prepared by dissolving an amount of test substance in a suitable solvent and subsequent addition of seawater. […]

[3] = test system: algae; assay: Raft panel static immersion test of antifouling paints: algae; set-up: key: G: Not present; Some light slime; F: Overall covered; conditions: Dutch harbor, sea water
Description: as §1, §2, §3, §4, §5

[4] = test system: hard fouling; assay: Raft panel static immersion test of antifouling paints: hard fouling; set-up: key: G: Not present; Some light slime; F: Overall covered; conditions: Dutch harbor, sea water
Description: as §1, §2, §3, §4, §5

[5] = test system: fouling organisms; assay: Raft panel static immersion test of antifouling paints: overall; set-up: key: good (G); satisfactory (S); failure (F); conditions: Dutch harbor, sea water
Description: as §1, §2, §3, §4, §5

[6] = model coating 1A: 35% Cu2O + 1% of compound
[7] = model coating 1B: 35% Cu2O + 2% of compound
[8] = model coating 1C: 35% Cu2O + 3% of compound
[9] = model coating 6A: 1% of compound + 3% Seanine
[10] = model coating 6B: 2% of compound + 3% Seanine
[11] = model coating 6C: 4% of compound + 3% Seanine
[12] = model coating 7A: 1% of compound + 3% Irgarol
[13] = model coating 7B: 2% of compound + 3% Irgarol
[14] = model coating 7C: 4% of compound + 3% Irgarol
[15] = model coating 10A: 4% of compound as only biocide
[16] = model coating 10B: 8% of compound as only biocide

C=CCCCCCCCCCNC=O [Compound 8, N-formyl-1-aminoundec-10-ene]
F: Performance (1 yr immersed) Slime [1, 15] | Performance (1 yr immersed) Overall [5, 9] | Performance (1 yr immersed) Overall [5, 12] | Performance (1 yr immersed) Overall [5, 15]
0.60 ppm: EC50 for settlement inhibition in ppm [2]
G: Performance (1 yr immersed) Slime [1, 8] | Performance (1 yr immersed) Slime [1, 11] | Performance (1 yr immersed) Algae [3, 7] | Performance (1 yr immersed) Algae [3, 8] | Performance (1 yr immersed) Algae [3, 9] | Performance (1 yr immersed) Algae [3, 10] | Performance (1 yr immersed) Algae [3, 11] | Performance (1 yr immersed) Algae [3, 12] | Performance (1 yr immersed) Algae [3, 13] | Performance (1 yr immersed) Algae [3, 14] | Performance (1 yr immersed) Hard fouling [4, 6] | Performance (1 yr immersed) Hard fouling [4, 7] | Performance (1 yr immersed) Hard fouling [4, 8] | Performance (1 yr immersed) Hard fouling [4, 11] | Performance (1 yr immersed) Hard fouling [4, 16] | Performance (1 yr immersed) Overall [5, 8] | Performance (1 yr immersed) Overall [5, 11]
S: Performance (1 yr immersed) Slime [1, 6] | Performance (1 yr immersed) Slime [1, 7] | Performance (1 yr immersed) Slime [1, 9] | Performance (1 yr immersed) Slime [1, 10] | Performance (1 yr immersed) Slime [1, 12] | Performance (1 yr immersed) Slime [1, 13] | Performance (1 yr immersed) Slime [1, 14] | Performance (1 yr immersed) Slime [1, 16] | Performance (1 yr immersed) Overall [5, 6] | Performance (1 yr immersed) Overall [5, 7] | Performance (1 yr immersed) Overall [5, 10] | Performance (1 yr immersed) Overall [5, 13] | Performance (1 yr immersed) Overall [5, 14] | Performance (1 yr immersed) Overall [5, 16]
